Experiment: Solubility of the compound in PGMEA (safe solvent)
Conditions: 23° C.; for solubility in PGMEA (amount of dissolution): ultrasonic waves 30 minutes, visual observation
Description: The solubility of the obtained compound in propylene glycol monomethyl ether acetate (PGMEA) was measured as the solubility of the compound in a safe solvent. The solubility was evaluated according to the following criteria utilizing the amount of dissolution in PGMEA. The amount of dissolution in PGMEA was measured at 23° C. by precisely weighing the compound into a test tube, adding PGMEA so as to attain a predetermined concentration, applying ultrasonic waves for 30 minutes in an ultrasonic cleaner, then visually observing the subsequent state of the fluid, and conducting evaluation on the basis of the concentration of the amount of complete dissolution.
A: 5.0% by mass<Amount of dissolution
B: 3.0% by mass<Amount of dissolution<5.0% by mass
C: Amount of dissolution<3.0% by mass

Row | SMILES | solubility in PGMEA, evaluation | solubility in PGMEA (amount of dissolution) [% by mass]
1 | Oc1ccc([Te](Cl)(Cl)c2ccc(O)cc2)cc1 [BHPT, bis(4-hydroxyphenyl)tellurium dichloride] | A (5.0% by mass<Amount of dissolution) | ≥ 5
2 | CC1(OC(=O)COc2ccc([Te](Cl)(Cl)c3ccc(OCC(=O)OC4(C)C5CC6CC(C5)CC4C6)cc3)cc2)C2CC3CC(C2)CC1C3 (stereo not shown) [BHPT-ADBAC, bis(4-(2-methyl-2-adamantyloxycarbonylmethoxy)phenyl)tellurium dichloride] | A (5.0% by mass<Amount of dissolution) | ≥ 5
3 | CC(C)(C)OC(=O)Oc1ccc([Te](Cl)(Cl)c2ccc(OC(=O)OC(C)(C)C)cc2)cc1 [BHPT-BOC, bis(tert-butoxycarboxyphenyl)tellurium dichloride] | A (5.0% by mass<Amount of dissolution) | ≥ 5
4 | CCOC(C)Oc1ccc([Te](Cl)(Cl)c2ccc(OC(C)OCC)cc2)cc1 (stereo not shown) [BHPT-EE, bis(ethoxyethylphenyl)tellurium dichloride] | A (5.0% by mass<Amount of dissolution) | ≥ 5
5 | Oc1ccc([Te](Cl)(Cl)c2ccc(O)cc2O)cc1 [CCHT, (2,4-dihydroxyphenyl) (4-hydroxyphenyl)tellurium dichloride] | A (5.0% by mass<Amount of dissolution) | ≥ 5
6 | CC1(OC(=O)COc2ccc([Te](Cl)(Cl)c3ccc(OCC(=O)OC4(C)C5CC6CC(C5)CC4C6)cc3OCC(=O)OC3(C)C4CC5CC(C4)CC3C5)cc2)C2CC3CC(C2)CC1C3 (stereo not shown) [CCHT-ADBAC] | A (5.0% by mass<Amount of dissolution) | ≥ 5
7 | Oc1ccc([Te](Cl)(Cl)c2ccc(O)c(-c3ccccc3)c2)cc1-c1ccccc1 [Ph-BHPT, bis(3-phenyl-4-hydroxyphenyl)tellurium dichloride] | A (5.0% by mass<Amount of dissolution) | ≥ 5
8 | CC1(OC(=O)COc2ccc([Te](Cl)(Cl)c3ccc(OCC(=O)OC4(C)C5CC6CC(C5)CC4C6)c(-c4ccccc4)c3)cc2-c2ccccc2)C2CC3CC(C2)CC1C3 (stereo not shown) [Ph-BHPT-ADBAC] | A (5.0% by mass<Amount of dissolution) | ≥ 5
9 | Oc1ccc([Te]c2ccc(O)c(-c3ccccc3)c2)cc1-c1ccccc1 [Ph-TDP, bis(3-phenyl-4-hydroxyphenyl)tellurium] | A (5.0% by mass<Amount of dissolution) | ≥ 5
10 | CC1(OC(=O)COc2ccc([Te]c3ccc(OCC(=O)OC4(C)C5CC6CC(C5)CC4C6)c(-c4ccccc4)c3)cc2-c2ccccc2)C2CC3CC(C2)CC1C3 (stereo not shown) [Ph-TDP-ADBAC] | A (5.0% by mass<Amount of dissolution) | ≥ 5
11 | CC(C)(C)OC(=O)COc1ccc([Te]c2ccc(OCC(=O)OC(C)(C)C)c(-c3ccccc3)c2)cc1-c1ccccc1 [Ph-TDP-BOC] | A (5.0% by mass<Amount of dissolution) | ≥ 5
12 | CCOC(C)Oc1ccc([Te](Cl)(Cl)c2ccc(OC(C)OCC)c(-c3ccccc3)c2)cc1-c1ccccc1 (stereo not shown) [Ph-TDP-EE] | A (5.0% by mass<Amount of dissolution) | ≥ 5
13 | Oc1ccc([Te]c2ccc(O)cc2)cc1 [TDP, 4,4′-telluriumdiphenol] | A (5.0% by mass<Amount of dissolution) | ≥ 5
14 | CC1(OC(=O)COc2ccc([Te]c3ccc(OCC(=O)OC4(C)C5CC6CC(C5)CC4C6)cc3)cc2)C2CC3CC(C2)CC1C3 (stereo not shown) [TDP-ADBAC] | A (5.0% by mass<Amount of dissolution) | ≥ 5
